Reference: BindingDB's records for doi:10.1021/acs.jmedchem.6b00397 (IQM-CSIC, 2016)

Target: Cannabinoid receptor 2 (Homo sapiens, UniProt P34972)
Assay: Displacement of [3H]-CP55940 from human CB2 receptor expressed in HEK293 cell membranes after 90 mins by liquid scintillation counting method

Sequence of Cannabinoid receptor 2 (P34972 whole entry): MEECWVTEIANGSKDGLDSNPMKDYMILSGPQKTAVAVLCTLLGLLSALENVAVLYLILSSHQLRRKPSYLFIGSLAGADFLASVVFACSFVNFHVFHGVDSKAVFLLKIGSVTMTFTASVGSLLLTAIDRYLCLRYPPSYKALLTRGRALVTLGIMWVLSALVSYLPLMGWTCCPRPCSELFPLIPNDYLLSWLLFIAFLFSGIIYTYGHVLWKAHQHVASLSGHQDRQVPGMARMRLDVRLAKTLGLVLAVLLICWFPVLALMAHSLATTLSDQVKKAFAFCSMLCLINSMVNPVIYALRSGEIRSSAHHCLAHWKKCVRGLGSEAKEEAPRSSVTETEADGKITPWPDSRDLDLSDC

SMILES | Ki [µM]
CCCCCCC(C)(C)c1cc(O)c2c(c1)OC(C)(C)c1cnn(CC)c1-2 | > 40
CCCCCCC(C)(C)c1cc(O)c2c(c1)OC(C)(C)c1cn(C)nc1-2 | > 40
CCCCCCC(C)(C)c1cc(O)c2c(c1)OC(C)(C)c1cnn(-c3ccc(Cl)cc3Cl)c1-2 | > 40
CCCCCCC(C)(C)c1cc(O)c2c(c1)OC(C)(C)c1cn(CC)nc1-2 | > 40
